# From patent publication US10961238B2, “Modulators of hedgehog (Hh) signaling pathway” (E-THERAPEUTICS PLC, priority 2016, dated 2021)
# System: C3H10T1/2 cells
# Experiment: C3H assay: differentiation of C3H10T1/2 cells by mSHH, measurement of alkaline phosphatase
# Type: cell-based, mouse
# Conditions: C3H10T1/2 cells stimulated with mSHH for 72 hours; alkaline phosphatase activity; read-out: IC50 Ranges
row,SMILES,IC50
1,"O=C(OCc1cccc([N+](=O)[O-])c1)N1CC(S(=O)(=O)N2CCC(c3c[nH]c4ncccc34)CC2)C1 [Compound 213, (3-nitrophenyl) methyl 3-[4-(1H-pyrrolo[2,3-b]pyridin-3-yl)piperidin-1-yl]sulfonylaze-tidine-1-carboxylate]",< 10 nM
2,"CC(C)(C)OC(=O)N1CCC(S(=O)(=O)N2CC=C(c3n[nH]c4ncccc34)CC2)CC1 [Compound 229, tert-butyl 4-[[4-(1H-pyrazolo[3,4-b]pyridin-3-yl)-3,6-dihydro-2H-pyridin-1-yl]sulfonyl] piperidine-1-carboxylate]",1000 to 10000 nM

# Same assay, conditions: Mus musculus, C3H 10T1/2, 72 h, read-out: IC50 Ranges
row,SMILES,IC50
1,"O=C(Oc1cccnc1)N1CC(S(=O)(=O)N2CCC(c3c[nH]c4ncccc34)CC2)C1 [Compound 212, pyridin-3-yl 3-[4-(1H-pyrrolo [2,3-b]pyridin-3-yl)piperidin-1-yl]sulfonylaze-tidine-1-carboxylate]",10 to 100 nM

# Same assay, conditions: Mus musculus, C3H 10T1/2; C3H10T1/2 cells stimulated with mSHH for 72 hours; alkaline phosphatase activity; read-out: IC50 Ranges
row,IC50,SMILES
1,10 to 100 nM,"CC[C@@H](C)OC(=O)N1CC(S(=O)(=O)N2CCC(c3c[nH]c4ncccc34)CC2)C1 [Compound 200, [(2R)-butan-2-yl]3-[4-(1H-pyrrolo[2,3-b]pyridin-3-yl)piperidin-1-yl]sulfonylaze-tidine-1-carboxylate]"
2,10 to 100 nM,"O=C(OCC1CCC1)N1CC(S(=O)(=O)N2CCC(c3c[nH]c4ncccc34)CC2)C1 [Compound 201, cyclobutylmethyl 3-[4-(1H-pyrrolo[2,3-b]pyridin-3-yl)piperidin-1-yl]sulfonylaze-tidine-1-carboxylate]"
3,100 to 1000 nM,"Cc1noc(C)c1COC(=O)N1CC(S(=O)(=O)N2CCC(c3ccncc3)CC2)C1 [Compound 202, (3,5-dimethyl-1,2-oxazol-4-yl)methyl 3-(4-pyridin-4-ylpiperidin-1-yl)sulfonylaze-tidine-1-carboxylate]"
4,1000 to 10000 nM,"Cc1noc(C)c1CNC(=O)N1CC(S(=O)(=O)N2CCC(c3ccncc3)CC2)C1 [Compound 203, N-[(3,5-dimethyl-1,2-oxazol-4-yl)methyl]-3-(4-pyridin-4-ylpiperidin-1-yl)sulfonylaze-tidine-1-carboxamide]"
5,10 to 100 nM,"Cc1noc(C)c1CC(=O)N1CC(S(=O)(=O)N2CCC(c3ccncc3)CC2)C1 [Compound 205, 2-(3,5-dimethyl-1,2-oxazol-4-yl)-1-[3-(4-pyridin-4-ylpiperidin-1-yl)sulfonylaze-tidin-1-yl]ethanone]"
6,10 to 100 nM,"CC(C)(C)OC(=O)N1CCC(OC(=O)N2CC(S(=O)(=O)N3CCC(c4c[nH]c5ncccc45)CC3)C2)CC1 [Compound 211, tert-butyl 4-[3-[4-(1H-pyrrolo[2,3-b]pyridin-3-yl)piperidin-1-yl]sulfonylaze-tidine-1-carbonyl] oxypiperidine-1-carboxylate]"
7,10 to 100 nM,"COc1ccc(COC(=O)N2CC(S(=O)(=O)N3CCC(c4c[nH]c5ncccc45)CC3)C2)cc1 [Compound 214, (4-methoxyphenyl) methyl 3-[4-(1H-pyrrolo[2,3-b]pyridin-3-yl)piperidin-1-yl]sulfonylaze-tidine-1-carboxylate]"
8,10 to 100 nM,"COc1cccc(OC(=O)N2CC(S(=O)(=O)N3CCC(c4c[nH]c5ncccc45)CC3)C2)c1 [Compound 215, (3-methoxyphenyl) 3-[4-(1H-pyrrolo[2,3-b]pyridin-3-yl)piperidin-1-yl]sulfonylaze-tidine-1-carboxylate]"
9,10 to 100 nM,"COc1ccc(OC(=O)N2CC(S(=O)(=O)N3CCC(c4c[nH]c5ncccc45)CC3)C2)cc1 [Compound 219, (4-methoxyphenyl) 3-[4-(1H-pyrrolo[2,3-b]pyridin-3-yl)piperidin-1-yl]sulfonylaze-tidine-1-carboxylate]"
10,100 to 1000 nM,"CC(C)(C)OC(=O)N1CC(S(=O)(=O)N2CCC(c3c[nH]c4nccc(F)c34)CC2)C1 [Compound 221, tert-butyl 3-[4-(4-fluoro-1H-pyrrolo[2,3-b]pyridin-3-yl)piperidin-1-yl]sulfonylaze-tidine-1-carboxylate]"
11,1000 to 10000 nM,Cc1[nH]c2ncccc2c1C1CCN(S(=O)(=O)C2CN(C(=O)OC(C)(C)C)C2)CC1 [Compound 224]
12,1000 to 10000 nM,"CC(C)(C)OC(=O)N1CC(S(=O)(=O)N2CCN(c3nsc4ccccc34)CC2)C1 [Compound 225, tert-butyl 3-[4-(1,H-benzothiazol-3-yl)piperazin-1-yl]sulfonylaze-tidine-1-carboxylate]"
13,1000 to 10000 nM,"CC(C)(C)OC(=O)N1CC(S(=O)(=O)N2CCN(c3c[nH]c4ncccc34)CC2)C1 [Compound 226, tert-Butyl 3-[4-(1H-pyrrolo[2,3-b]pyridin-3-yl)piperazin-1-yl]sulfonylazetidine-1-carboxylate]"
14,1000 to 10000 nM,"COc1ccc(N2CCN(S(=O)(=O)C3CCN(C(=O)OC(C)(C)C)CC3)CC2)cc1 [Compound 227, tert-butyl 4-[4-(4-methoxyphenyl)piperazin-1-yl]sulfonylpiper-idine-1-carboxylate]"
15,100 to 1000 nM,"CC(C)(C)OC(=O)N1CCC(S(=O)(=O)N2CC=C(c3csc4cccnc34)CC2)CC1 [Compound 230, tert-butyl 4-[(4-thieno[3,2-b]pyridin-3-yl-3,6-dihydro-2H-pyridin-1-yl)sulfonyl]pip eridine-1-carboxylate]"

# Continued, molecule first:
row,SMILES,IC50
1,"O=C(c1ccccn1)N1CC(S(=O)(=O)N2CCC(c3c[nH]c4ncccc34)CC2)C1 [Compound 192, pyridin-2-yl-[3-[4-(1H-pyrrolo[2,3-b]pyridin-3-yl)piperidin-1-yl]sulfonylaze-tidin-1-yl]methanone]",100 to 1000 nM
2,"O=C(c1cccs1)N1CC(S(=O)(=O)N2CCC(c3c[nH]c4ncccc34)CC2)C1 [Compound 193, [3-[4-(1H-pyrrolo[2,3-b]pyridin-3-yl)piperidin-1-yl]sulfonylaze-tidin-1-yl]-thiophen-2-ylmethanone]",10 to 100 nM
3,"CC(C)C(=O)N1CC(S(=O)(=O)N2CCC(c3c[nH]c4ncccc34)CC2)C1 [Compound 194, 2-methyl-1-[3-[4-(1H-pyrrolo[2,3-b]pyridin-3-yl)piperidin-1-yl]sulfonylaze-tidin-1-yl]propan-1-one]",100 to 1000 nM
4,"CC(C)CC(=O)N1CC(S(=O)(=O)N2CCC(c3c[nH]c4ncccc34)CC2)C1 [Compound 195, 3-methyl-1-[3-[4-(1H-pyrrolo[2,3-b]pyridin-3-yl)piperidin-1-yl]sulfonylaze-tidin-1-yl]butan-1-one]",10 to 100 nM
5,"O=C(O[C@@H]1CCOC1)N1CC(S(=O)(=O)N2CCC(c3c[nH]c4ncccc34)CC2)C1 [Compound 196, [(3R)-oxolan-3-yl]3-[4-(1H-pyrrolo[2,3-b]pyridin-3-yl)piperidin-1-yl]sulfonylaze-tidine-1-carboxylate]",100 to 1000 nM
6,"O=C(O[C@H]1CCOC1)N1CC(S(=O)(=O)N2CCC(c3c[nH]c4ncccc34)CC2)C1 [Compound 197, [(3S)-oxolan-3-yl]3-[4-(1H-pyrrolo[2,3-b]pyridin-3-yl)piperidin-1-yl]sulfonylaze-tidine-1-carboxylate]",10 to 100 nM
7,"O=C(OC1CCC1)N1CC(S(=O)(=O)N2CCC(c3c[nH]c4ncccc34)CC2)C1 [Compound 198, cyclobutyl 3-[4-(1H-pyrrolo[2,3-b]pyridin-3-yl)piperidin-1-yl]sulfonylaze-tidine-1-carboxylate]",10 to 100 nM
8,"CC1(COC(=O)N2CC(S(=O)(=O)N3CCC(c4c[nH]c5ncccc45)CC3)C2)COC1 [Compound 199, (3-methyloxetan-3-yl)methyl 3-[4-(1H-pyrrolo[2,3-b]pyridin-3-yl)piperidin-1-yl]sulfonylaze-tidine-1-carboxylate]",10 to 100 nM
9,"O=C(OCC1CC1)N1CC(S(=O)(=O)N2CCC(c3c[nH]c4ncccc34)CC2)C1 [Compound 204, cyclopropylmethyl 3-[4-(1H-pyrrolo[2,3-b]pyridin-3-yl)piperidin-1-yl]sulfonylaze-tidine-1-carboxylate]",10 to 100 nM
10,"CCN(C(=O)N1CC(S(=O)(=O)N2CCC(c3c[nH]c4ncccc34)CC2)C1)C(C)C [Compound 206, N-ethyl-N-propan-2-yl-3-[4-(1H-pyrrolo[2,3-b]pyridin-3-yl)piperidin-1-yl]sulfonylaze-tidine-1-carboxamide]",10 to 100 nM
11,"O=C(OCc1cccc(Oc2ccccc2)c1)N1CC(S(=O)(=O)N2CCC(c3c[nH]c4ncccc34)CC2)C1 [Compound 207, (3-phenoxyphenyl) methyl 3-[4-(1H-pyrrolo [2,3-b]pyridin-3-yl)piperidin-1-yl]sulfonylaze-tidine-1-carboxylate]",10 to 100 nM
12,"Cc1cc(C)cc(OC(=O)N2CC(S(=O)(=O)N3CCC(c4c[nH]c5ncccc45)CC3)C2)c1 [Compound 208, (3,5-dimethylphenyl) 3-[4-(1H-pyrrolo[2,3-b]pyridin-3-yl)piperidin-1-yl]sulfonylaze-tidine-1-carboxylate]",100 to 1000 nM
13,"COc1ccc(COC(=O)N2CC(S(=O)(=O)N3CCC(c4c[nH]c5ncccc45)CC3)C2)cc1F [Compound 209, (3-fluoro-4-methoxyphenyl) methyl 3-[4-(1H-pyrrolo[2,3-b]pyridin-3-yl)piperidin-1-yl]sulfonylaze-tidine-1-carboxylate]",10 to 100 nM
14,"O=C(OC1CCNCC1)N1CC(S(=O)(=O)N2CCC(c3c[nH]c4ncccc34)CC2)C1 [Compound 210, piperidin-4-yl 3-[4-(1H-pyrrolo[2,3-b]pyridin-3-yl)piperidin-1-yl]sulfonylaze-tidine-1-carboxylate]",100 to 1000 nM
15,"O=C(OC1CCOCC1)N1CC(S(=O)(=O)N2CCC(c3c[nH]c4ncccc34)CC2)C1 [Compound 218, oxan-4-yl 3-[4-(1H-pyrrolo[2,3-b]pyridin-3-yl)piperidin-1-yl]sulfonylaze-tidine-1-carboxylate]",10 to 100 nM
16,"O=C(OC1COCOC1)N1CC(S(=O)(=O)N2CCC(c3c[nH]c4ncccc34)CC2)C1 [Compound 220, 1,3-dioxan-5-yl 3-[4-(1H-pyrrolo[2,3-b]pyridin-3-yl)piperidin-1-yl]sulfonylaze-tidine-1-carboxylate]",10 to 100 nM
17,"O=C(OC1COC1)N1CC(S(=O)(=O)N2CCC(c3c[nH]c4ncccc34)CC2)C1 [Compound 222, oxetan-3-yl 3-[4-(1H-pyrrolo[2,3-b]pyridin-3-yl)piperidin-1-yl]sulfonylaze-tidine-1-carboxylate]",100 to 1000 nM
